Assay [1] concerns osteoblasts. In words: Osteoblast four-hour adhesion on peptide-modified glass substrates. Format: cell-based. The text has this:
Using standard protocols, 3-aminopropyltriethoxysilane was used to immobilize exposed amine groups on the surfaces of glass substrates, and 1-ethyl-3-(3dimethylaminopropyl)carbodimide was used to bind peptides having the sequence KRSRGGG (SEQ ID NO:4) to the exposed amine groups on the glass substrates.
(§1) Peptides were immobilized on substrate surfaces (borosilicate glass, 18 mm round coverslips; Fisher) using silane coupling techniques adapted from published protocols [Weetall Applied Biochem. Biotech. 41, 158-188 (1993); Robinson et al. Biochim. Biophys. Acta 242, 659-661 (1971); and Baum et al. Biochim. Biophys. Acta 268, 411-414 (1972)], the disclosures of which are incorporated herein by reference. Briefly, 3-aminopropyltriethoxysilane (Sigma) was allowed to react with hydroxyl groups on the material surfaces to produce "aminophase" substrates.
(§2) In preparing for peptide immobilization, borosilicate glass coverslips (Fisher) were etched for one hour in a 3:1 (v/v) solution of 2 N sulfuric acid and 2 N nitric acid, degreased in acetone and ethanol, and rinsed with distilled water. The degreased and acid-etched substrates were placed in glass petri dishes which had been previously cleaned with a 3.5% solution of 30% hydrogen peroxide in 18 M sulfuric acid.
(§3) The substrates were dried at 160° C. for at least one hour, rinsed with dry acetone, and immersed in 2% 3-aminopropyltriethoxysilane in dry acetone, supplemented with 2% triethylamine under an argon atmosphere at […] for one hour. The substrates were rinsed (under an argon atmosphere) once with methylene chloride and twice with dry acetone, and cured under argon at 120° C. for three hours.
(§4) Peptides were covalently bound to immobilized exposed amine groups on the substrate surfaces during a twenty-minute incubation (under argon) with a 25:25:1 (v/v/v) solution of peptide (0.1 mM in dry N,N-dimethylformamide):1-ethyl-3-(3-dimethylaminopropyl)carbodiimide (2.5 mg/mL in dry N,N-dimethylformamide): n-ethylmorpholine. Unreacted amine groups were passivated by soaking peptide-modified substrates in acetic anhydride for 5 minutes; absorbed peptides were then removed by soaking for 5 minutes in 4 M urea, rinsing in distilled water, and soaking for 5 minutes in 1 M sodium chloride. Peptide-modified substrates were then thoroughly rinsed in distilled water prior to sterilization and use.
Substrates which had been etched in a 3:1 (v/v) solution of 2 N sulfuric acid: 2 N nitric acid, degreased in acetone and ethanol, and rinsed copiously with distilled water were used as references. Glass substrates were sterilized via overnight ultraviolet irradiation prior to use in experiments.

Assay [2] deals with bone marrow derived (BMD) osteoblast-like cells. In words: Bone marrow-derived osteoblast-like cell four-hour adhesion on peptide-modified glass. In kind it is cell-based. The conditions noted are these: Table 2, peptide immobilized on glass.
Text: as §1, §2
The substrates were dried at 160° C. for at least one hour, rinsed with dry acetone, and immersed in 2% 3-aminopropyltriethoxysilane in dry acetone, supplemented with 2% triethylamine under an argon atmosphere at […] for one hour. The substrates were rinsed (under an argon atmosphere) once with methylene chloride and twice with dry acetone, and cured under argon at 120° C. for three hours. […]

The subject of assay [3] is BMD osteoclasts (bone-resorbing cells). In words: Four-hour adhesion of Table 3 (title: BMD osteoblast-like cell; text: BMD osteoclasts) on peptide-modified glass. Format: cell-based. The conditions noted are these: for Cell density, Average: Table 3, four-hour adhesion, peptide immobilized on glass.
Text: as §1, §2, §3
as §4, with “use. […]” for “use.”

Another assay has as its system endothelial cells. As to the kind of experiment: Endothelial cell four-hour adhesion on peptide-modified glass. In kind it is cell-based. As to conditions: for Cell density, Average: four-hour adhesion, peptide immobilized on glass.
Text: as §1, §2, §3, §4
(§5) In all experiments performed in the present invention, substrates which had been aminated but not peptide-grafted (i.e., aminophase substrates) were used as controls. Substrates which had been etched in a 3:1 (v/v) solution of 2 N sulfuric acid: 2 N nitric acid, degreased in acetone and ethanol, and rinsed copiously with distilled water were used as references. Glass substrates were sterilized via overnight ultraviolet irradiation prior to use in experiments.

The subject of another assay is calvarial osteoblasts. In words: Calvarial osteoblast two-hour competitive adhesion on KRSRGGG-modified substrates after pre-incubation with soluble peptide. In kind it is cell-based.
For assay [4], the system named is BMD osteoblast-like cells. In words: BMD osteoblast-like two-hour competitive adhesion on KRSRGGG-modified substrates. In kind it is cell-based. The procedure: The effect of pre-incubation of BMD osteoblast-like and osteoclast-like cells was also examined with similar results (Tables 8 and 9).
The subject of assay [5] is osteoblasts. As to the kind of experiment: Osteoblast four-hour adhesion in the absence and presence of 0.2 U/ml heparinase. The conditions noted are these: for Cell density, Average: Table 10, four-hour adhesion. Format: cell-based.
Text: The heparinase used degrades heparan sulfate in a very selective manner.
as §1, §2, §3, §4, §5

Another assay relates to fibroblasts. As to the kind of experiment: Fibroblast adhesion on peptide-modified surfaces. Format: cell-based. As to conditions: surfaces modified with peptide.
Assay [6] relates to osteoblasts. The conditions noted are these: cultured for two weeks on peptide-modified Ti-6Al-4V.
Text: In the present study, medical grade Ti-6Al-4V stock (ASTM F-136; Osteonics) was sectioned into coupons using a low-speed saw equipped with a diamond wafering blade. The metal coupons were then polished to a 30 micron finish via sanding (using 600 grit paper on a sanding wheel), polishing to a 15 micron finish and then to a 9 micron finish (using diamond spray on a polishing wheel), and finally polishing to a 3 micron finish using aluminum oxide (Al2 O3) mixed with 30% hydrogen peroxide on a polishing wheel), according to standard techniques. Polished metal coupons were degreased with acetone and ethanol and rinsed copiously with distilled water before peptides were immobilized on the metal surfaces (via the aforementioned techniques).
Setting [7] is: Table 1, peptide immobilized on glass.
Setting [8] is: Table 6, KRSR peptides of different lengths on glass.
Where [9] appears, read: Table 4 (second, identical print).
[10] abbreviates: Table 8, peptide concentration 0.5 mM.
The mark [11] stands for this setting: Table 8, peptide concentration 1.0 mM.
The mark [12] stands for this setting: Table 8, peptide concentration 1.5 mM.
Where [13] appears, read: Table 8, peptide concentration 2.0 mM.

Peptide text beside a SMILES is read from it.

For `N=C(N)NCCC[C@H](NC(=O)[C@H](CO)NC(=O)[C@H](CCCNC(=N)N)NC(=O)[C@@H](N)CCCCN)C(=O)NCC(=O)NCC(=O)NCC(=O)O` [KRSRGGG, H-Lys-Arg-Ser-Arg-(Gly)3 --OH] (H-KRSRGGG-OH), the “Cell density, Average” value in the assay on osteoblasts [1] (setting [7]) was found to be 2145 Cells/cm^2; with osteoblasts [1] (setting [8]) it was 1770 Cells/cm^2; in [2] it was 2332 Cells/cm^2; in assay [3] it was 2377 Cells/cm^2; in the assay with endothelial cells (Table 4 (first print)), 1600 Cells/cm^2; in the assay with endothelial cells (setting [9]), 1600 Cells/cm^2. The figures for the “Cell density, Average” value with osteoblasts [5] (Heparinase 0.2 U/ml) and with osteoblasts [5] (Heparinase none) were 330 Cells/cm^2 and 2145 Cells/cm^2, respectively. In addition, in [3] (peptide-modified surfaces), the “BMD osteoclast adhesion versus other treated or untreated surfaces (in words)” value was “in greater numbers”. Moreover, in the assay on endothelial cells (surfaces modified with peptide), the “Endothelial cell adhesion to peptide-modified surfaces (in words)” value is reported as “do not adhere in significantly greater numbers”. Moreover, the “Effect of pre-incubation of osteoblasts with peptide on adhesion to KRSR-modified substrate (in words)” value with calvarial osteoblasts was “significant decrease in adhesion”. Also, the “Cell Adhesion expressed as % control” value in [4] (setting [10]) was 81.63 % control; in assay [4] (setting [11]), 78.91 % control; in assay [4] (setting [12]) it was 66.67 % control; in assay [4] (setting [13]), 55.5 % control. Besides, the “Effect of heparinase treatment on osteoblast adhesion (in words)” value in the assay with osteoblasts [5] (heparinase treatment, peptide-modified substrate) is “significantly inhibited adhesion”. In addition, in the assay with fibroblasts, the “Fibroblast adhesion to peptide-modified surfaces (in words)” value is listed as “do not adhere in significantly greater numbers”.
For the compound `N=C(N)NCCC[C@H](NC(=O)[C@H](CO)NC(=O)[C@H](CO)NC(=O)[C@@H](N)CCCCN)C(=O)NCC(=O)NCC(=O)NCC(=O)O` [KSSRGGG, Lysine-Serine-Serine-Arginine-Glycine-Glycine-Glycine, reference compound] (H-KSSRGGG-OH), the “Cell Adhesion expressed as % control” value in assay [4] (setting [10]) stood at 109.52 % control; in assay [4] (setting [11]), 93.65 % control; in assay [4] (setting [12]), 101.59 % control; in [4] (setting [13]), 107.94 % control.
For “Arginine-Aspartic Acid-Glycine-Serine [RDGS, reference compound]”, the “Cell density, Average” value in the assay on osteoblasts [1] (setting [7]) is 1656 Cells/cm^2; in [2] it was 1712 Cells/cm^2; in assay [3], 2188 Cells/cm^2; with endothelial cells (Table 4 (first print)), 1570 Cells/cm^2; with endothelial cells (setting [9]), 1570 Cells/cm^2; with osteoblasts [5] (Heparinase 0.2 U/ml) it was 378 Cells/cm^2. Further, the “Cell density, Average” value in the assay with osteoblasts [5] (Heparinase none) came out at 1656 Cells/cm^2. The “Osteoblast morphology and cytoskeletal organization” value in the assay on osteoblasts [6] was “normal morphology and cytoskeletal organization”.
With H-Lys-Arg-Ser-Arg-OH (H-KRSR-OH), the “Cell density, Average” value in the assay with osteoblasts [1] (Table 5, KRSR vs HHWH on glass) is reported as 1508 Cells/cm^2; in the assay on osteoblasts [1] (setting [8]), 1508 Cells/cm^2.
With “Histidine-Histidine-Tryptophan-Histidine (HHWH) [reference compound]”, in the assay on osteoblasts [1] (Table 5, KRSR vs HHWH on glass), the “Cell density, Average” value was found to be 1080 Cells/cm^2.
In the case of “KRSRQGGGGG [KRSR peptide of a different (longer) spacer length attached to the substrate]”, the “Cell density, Average” value with osteoblasts [1] (setting [8]) came to 1708 Cells/cm^2.

The values above are taken from patent publication US6262017A, “Peptides for altering osteoblast adhesion” (Research Corporation Technologies, Inc., priority 1998, dated 2001).
